The values below come from patent publication US20260008818A1, “CYCLIC PEPTIDE OR SALT THEREOF, AND USES THEREOF” (FUJIFILM Corporation, priority 2023, published 2026).

Ends that are not written are not given here.

The nature of data set [1]: Stability of cyclic peptide after alkali treatment, LC. Format: physicochemical. The conditions noted are these: alkali treatment: 0.5 mol/L sodium hydroxide aqueous solution, room temperature, 3 hours. As for the experimental part: In addition, the stability of the cyclic peptide (SEQ ID NO: 382) containing a cysteine residue in the cyclized portion and the cyclic peptide (SEQ ID NO: 374) containing a homocysteine residue in the cyclized portion was compared under the following alkali treatment, which is a more severe condition.
The alkali treatment was performed by the following method. 25 μL of a 0.2 mg/mL cyclic peptide aqueous solution was prepared, 58.8 μL of a 0.5 mol/L sodium hydroxide aqueous solution was added to the aqueous solution, and the mixture was incubated at room temperature for 3 hours to obtain an aqueous solution of the cyclic peptide alkali-treated. The total area of all the peaks in LC/MS of the cyclic peptide before the alkali treatment was set to 100%, and the proportion of the total area of all the peaks in LC/MS of the aqueous solution of the cyclic peptide alkali-treated was determined to calculate the residual rate of the cyclic peptide.
The LC conditions used for the evaluation of molecular stability are the same as those in the measurement of the above-described cyclic peptide treated with a reducing agent.

Data set [2] deals with BaF3 cells stably expressing FGFR (porcine). The experiment in a line: Cell proliferation-promoting effect on BaF3 cells stably expressing porcine FGFR. The conditions noted are these: BaF3 with porcine FGFR; viable cells at the addition concentration (0.001 to 10 nmol/L) with largest number; 2 nights. Format: cell-based. On the procedure:
(§1) The FGFR phosphorylation ability of the cyclic peptide complex was evaluated using the BaF3 cell proliferation-promoting effect in which FGFR was stably expressed.
(§2) BaF3 cells stably expressing FGFR were established by introducing a vector (human: Gene Copocia, EX-Y2820-M67, bovine: sequence of Accession No. A4IFL5 was introduced into pCDNA3.1/Hygro(+) Mammalian Expression Vector (Thermo, V87020), porcine: sequence of Accession No. A0A8DIE4H1 was introduced into pCDNA3.1/Hygro(+) Mammalian Expression Vector (Thermo, V87020), and avian: sequence of Accession No. P21804 was introduced into pCDNA3.1/Hygro(+) Mammalian Expression Vector (Thermo, V87020)) into which FGFR gene had been incorporated, into BaF3 cells using NucleoFector (Lonza) and performing drug selection of cells into which the FGFR gene had been introduced using hygromycin.
(§3) The evaluation of the proliferation-promoting effect of BaF3 cells in which FGFR is stably expressed was performed by the following method. First, RPMI-1640 with L-Glutamine and Phenol Red (FUJIFILM Wako Pure Chemical Corporation, 189-02025) and Fetal Bovine Serum (Thermo, 10270-106) were mixed at a volume ratio of 9:1, and then heparin (STEM CELL, 07980) was added thereto such that the final concentration thereof was 8 μg/mL, thereby preparing a culture medium for evaluation (hereinafter, described as RPMI (10% FBS) medium). Next, the BaF3 cells in which FGFR had been stably expressed were washed twice with RPMI (10% FBS) culture medium, suspended in RPMI (10% FBS) culture medium in which the cyclic peptide complex had been dissolved to a final concentration of 0.001 to 10 nmol/L, and seeded in a 384-well plate. In this case, a condition in which the cyclic peptide complex was not added as a negative control was prepared. After culturing at 37° C. (5% CO2) for 2 nights, Hoechst 33342, Trihydrochloride, Trihydrate—10 mg/mL Solution in Water (Thermo, H3570), -Cellstain (registered trademark)-Calcein-AM solution (1 mg/mL DMSO solution) (DOJINDO, C396), and -Cellstain (registered trademark)-PI solution (DOJINDO, P378) were each added to RPMI (10% FBS) culture medium in a volume amount of 1/1,000 at the final concentration, and live/dead staining of the cells were performed by allowing to stand at room temperature for 1 hour, and imaging was performed using a confocal microscope (Yokogawa Electric Corporation, CQ1). The number of viable cells was calculated from the imaging data, and the cell proliferation-promoting effect was evaluated according to the following evaluation criteria. The number of viable cells in the negative control was about 20 cells/well. The evaluation result preferably satisfies the evaluation criteria A, B, or C. […]

Data set [3] relates to BaF3 cells stably expressing FGFR (human). The experiment in a line: Cell proliferation-promoting effect on BaF3 cells stably expressing human FGFR. Format: cell-based. The settings on record: BaF3 with human FGFR; viable cells at the addition concentration (0.001 to 10 nmol/L) with largest number; 2 nights. As for the experimental part: as §1, §2, §3
Data set [4] deals with BaF3 cells stably expressing FGFR (avian). The experiment in a line: Cell proliferation-promoting effect on BaF3 cells stably expressing avian FGFR. It counts as cell-based. The settings on record: BaF3 with avian FGFR; viable cells at the addition concentration (0.001 to 10 nmol/L) with largest number; 2 nights. On the procedure:
as §1, §2, §3

Data set [5] has as its system BaF3 cells stably expressing FGFR (bovine). The experiment in a line: Cell proliferation-promoting effect on BaF3 cells stably expressing bovine FGFR. Format: cell-based. The conditions noted are these: BaF3 with bovine FGFR; viable cells at the addition concentration (0.001 to 10 nmol/L) with largest number; 2 nights. As for the experimental part:
as §1, §2, §3

Data set [6] relates to hMSC-Human Mesenchymal Stem Cells. The data set can be described thus: Effect of maintaining MSC undifferentiated potency (gene expression). It counts as cell-based. As for the experimental part:
The effect of maintaining mesenchymal stem cell (MSC) undifferentiated potency of the cyclic peptide complex was evaluated.
MSC was prepared in the same manner as in Example 7.
The evaluation of the effect of maintaining the MSC undifferentiated potency was performed by the following method. First, a culture medium (hereinafter, referred to as a custom culture medium) in which bFGF was removed from PRIME-XV MSC Expansion XSFM (FUJIFILM Irvine Scientific, Inc., 91149) was prepared. Next, Prime-XV Human Fibronectin (FUJIFILM Irvine Scientific, Inc., 31002) was dissolved in PBS (Fujifilm Wako Pure Chemical Corporation, 164-23551), 2 μg/cm^2 of the solution was added to a 12-well plate used for proliferation, and the 12-well plate was allowed to stand at room temperature for 3 hours to coat the 12-well plate with fibronectin. Thereafter, the MSCs subjected to the subculture were peeled using Tryple Express (Thermo, 12604-013), washed once with a custom culture medium, suspended in a custom culture medium in which a cyclic peptide complex or bFGF (R&D Systems, 3718-GMP) was diluted to final concentrations of 3 nmol/L and 1 nmol/L, and seeded on a 12-well plate coated with fibronectin. In this case, conditions in which the cyclic peptide complex and bFGF were not added as a negative control were prepared. After culturing at 37° C. (5% CO2) for 2 nights, the culture medium was replaced by removing the supernatant of the culture medium and adding the same amount of a culture medium prepared to have the same composition as the removed culture medium. After further culturing at 37° C. (5% CO2) for 2 nights, RNA was extracted using an RNeasy Plus Mini Kit (Qiagen, 74136) according to the manufacturer's protocol. […] The expression level of each gene was normalized by setting the expression level of the well to which 1 nmol/L bFGF was added to 1.

Where [7] appears, read: 1 nmol/L bFGF versus condition without bFGF (negative control).

Turning to “H-(C)-SYERLQFHGHEAPFRV-(K(acetyl))-VKKK [SEQ ID NO: 382]”, in data set [1], the “residual rate of the cyclic peptide” value is given as 26%.
In the case of “392 (HCSYERLQFHGHEAPFRVKVHCSYERLQFHGHEAPFRVKV; also: cyclic, closure not given here) [compound 392]”, in data set [2], the “Evaluation result of cell proliferative properties Porcine” value was “B (The number of viable cells is 200 cells/well or more and less than 400 cells/well.)”. For the same substance, in data set [3], the “Evaluation result of cell proliferative properties Human” value is listed as “A (The number of viable cells is 400 cells/well or more.)”. Moreover, the “Evaluation result of cell proliferative properties Avian” value in data set [4] is “B (The number of viable cells is 200 cells/well or more and less than 400 cells/well.)”. Moreover, in data set [5], the “Evaluation result of cell proliferative properties Bovine” value was “A (The number of viable cells is 400 cells/well or more.)”.
For the substance “395 (CSYERLQFHGHEAPFRVKVCSYERLQFHGHEAPFRVKV; also: cyclic, closure not given here) [compound 395]”, in data set [2], the “Evaluation result of cell proliferative properties Porcine” value is “B (The number of viable cells is 200 cells/well or more and less than 400 cells/well.)”. The “Evaluation result of cell proliferative properties Human” value in data set [3] is “B (The number of viable cells is 200 cells/well or more and less than 400 cells/well.)”. In data set [4], the “Evaluation result of cell proliferative properties Avian” value is “B (The number of viable cells is 200 cells/well or more and less than 400 cells/well.)”. In addition, the “Evaluation result of cell proliferative properties Bovine” value in data set [5] is listed as “A (The number of viable cells is 400 cells/well or more.)”.
With “391 (HCSYERLQFHGHEAPFRVKVGHCSYERLQFHGHEAPFRVKV; also: cyclic, closure not given here) [compound 391]”, the “Evaluation result of cell proliferative properties Porcine” value in data set [2] was “B (The number of viable cells is 200 cells/well or more and less than 400 cells/well.)”. For the same substance, the “Evaluation result of cell proliferative properties Human” value in data set [3] is reported as “A (The number of viable cells is 400 cells/well or more.)”. In data set [4], the “Evaluation result of cell proliferative properties Avian” value is recorded as “A (The number of viable cells is 400 cells/well or more.)”. In data set [5], the “Evaluation result of cell proliferative properties Bovine” value is “A (The number of viable cells is 400 cells/well or more.)”.
For the substance “bFGF: basic fibroblast growth factor (R&D Systems, 3718-GMP)”, in data set [6] (setting [7]), the “expression level of Nanog” value is given as “did not change substantially” and the “expression level of Oct4” value is “did not change substantially”. Moreover, in data set [6] (cyclic peptide complex 3 nmol/L or bFGF 1 nmol/L, normalized to 1 nmol/L bFGF = 1, bFGF compared with negative control), the “expression level of Sox2” value is “changed”.
“H-(Hcy)-SYERLQFHGHEAPFRV-(K(acetyl))-VKKK [SEQ ID NO: 374]”: the “residual rate of the cyclic peptide” value in data set [1] is listed as 32%.
As to “396 (CSYERLQFHGHEAPFRVKVCSYERLQFHGHEAPFRVKV; also: cyclic peptide) [compound 396]”, the “Evaluation result of cell proliferative properties Porcine” value in data set [2] was “B (The number of viable cells is 200 cells/well or more and less than 400 cells/well.)”. Moreover, in data set [3], the “Evaluation result of cell proliferative properties Human” value is recorded as “A (The number of viable cells is 400 cells/well or more.)”. Also, the “Evaluation result of cell proliferative properties Avian” value in data set [4] is “A (The number of viable cells is 400 cells/well or more.)”. Moreover, in data set [5], the “Evaluation result of cell proliferative properties Bovine” value is “A (The number of viable cells is 400 cells/well or more.)”.
